Reference: the CheMixHub ionic liquid set

Assay: xn = mol fraction of the nth substance listed

CO + COP(=O)([O-])OC.Cn1cc[n+](C)c1
101 kPa, x1 = 1
Settings | viscosity [mPa·s]
303.15 K | 0.521
318.15 K | 0.44

CC[n+]1ccn(C)c1.O=S(=O)([N-]S(=O)(=O)C(F)(F)F)C(F)(F)F + F[B-](F)(F)F.[Li+]
101 kPa, x1 = 1
Settings | electrical conductivity [S/m]
288.15 K | 0.611
298.15 K | 0.883
333.15 K | 2.18

CC[n+]1ccn(C)c1.COP(=O)([O-])OC + CCO
Settings | viscosity [mPa·s]
293.15 K, 100 kPa, x1 = 0.7006 | 121.4
298.15 K, 100 kPa, x1 = 0.5013 | 37.58
298.15 K, 100 kPa, x1 = 0.7006 | 95.5
298.15 K, 100 kPa, x1 = 0.8011 | 141.3
298.15 K, 101 kPa, x2 = 0.398 | 68.8
298.15 K, 101 kPa, x2 = 0.598 | 23.29
303.15 K, 100 kPa, x1 = 0.3007 | 10.67
303.15 K, 100 kPa, x1 = 0.5994 | 48.5
303.15 K, 101 kPa, x2 = 0.398 | 55.24
308.15 K, 100 kPa, x1 = 1 | 134.2
308.15 K, 101 kPa, x2 = 0.798 | 4.904
313.15 K, 100 kPa, x1 = 0.3007 | 8.34
313.15 K, 100 kPa, x1 = 0.5994 | 31.82
313.15 K, 100 kPa, x1 = 1 | 102.6
318.15 K, 100 kPa, x1 = 0.3007 | 7.45
318.15 K, 101 kPa, x2 = 0.398 | 31.25
318.15 K, 101 kPa, x2 = 0.598 | 12.92
323.15 K, 100 kPa, x1 = 0.5013 | 15.7
323.15 K, 100 kPa, x1 = 0.8011 | 38.59
328.15 K, 100 kPa, x1 = 0.7006 | 25.53
328.15 K, 101 kPa, x2 = 0.199 | 38.21
333.15 K, 100 kPa, x1 = 0.1004 | 1.71
333.15 K, 100 kPa, x1 = 0.7006 | 21.5
333.15 K, 100 kPa, x1 = 1 | 41.05
338.15 K, 100 kPa, x1 = 0.8988 | 26.44

CC[n+]1ccn(C)c1.O=S(=O)([N-]S(=O)(=O)C(F)(F)F)C(F)(F)F + O=C1OCCO1
100 kPa, x2 = 0
Settings | viscosity [mPa·s]
383.15 K | 4.2
393.15 K | 3.7

CCCCCC[n+]1ccccc1.N#C[N-]C#N + O
100 kPa
Settings | electrical conductivity [S/m] | viscosity [mPa·s]
298.15 K, x1 = 0.9308 | – | 50.4
298.15 K, x1 = 0.9582 | 0.494 | –
298.15 K, x1 = 0.9762 | 0.477 | –
298.15 K, x2 = 0.01463 | – | 56.3
303.15 K, x1 = 0.9663 | – | 43.33
308.15 K, x1 = 0.924 | 0.796 | –
318.15 K, x1 = 0.9146 | – | 22.52
318.15 K, x1 = 0.9409 | 1.09 | –
318.15 K, x1 = 0.9663 | – | 24.43
328.15 K, x1 = 0.9146 | – | 15.96
328.15 K, x1 = 0.924 | 1.47 | –
328.15 K, x1 = 0.9487 | – | 16.85
328.15 K, x1 = 0.9762 | 1.35 | –
338.15 K, x1 = 0.9075 | 1.94 | –
338.15 K, x1 = 0.9146 | – | 12.16
338.15 K, x1 = 0.9409 | 1.85 | –
338.15 K, x2 = 0.01463 | – | 13.8

CC[n+]1ccccc1.[Cl-] + CCCC[n+]1ccccc1.[Br-]
viscosity [mPa·s], 101 kPa
Settings | x1 = 0.118 | x1 = 0.197 | x1 = 0.318 | x1 = 0.384 | x1 = 0.492 | x1 = 0.585 | x1 = 0.686 | x1 = 0.81 | x1 = 0.902
373.1 K | – | – | – | 61 | 54.1 | 48.8 | 43.7 | 38 | –
378.1 K | – | – | 53.6 | 50.2 | 44.7 | 40.6 | 36.5 | 32 | –
383.1 K | 53.8 | 49.7 | 44 | 41.4 | 37.1 | 33.8 | 30.6 | 27.1 | –
388.1 K | 44 | 40.8 | 36.4 | 34.3 | 31 | 28.4 | 25.8 | 23 | 20.9
393.1 K | 36.2 | 33.7 | 30.3 | 28.6 | 26 | 24 | 21.9 | 19.7 | 18
398.1 K | 30 | 28.1 | 25.4 | 24.1 | 22 | 20.4 | 18.8 | 17 | 15.59
403.1 K | 25.1 | 23.6 | 21.5 | 20.5 | 18.8 | 17.5 | 16.19 | 14.73 | 13.59
408.1 K | 21.2 | 20.1 | 18.4 | 17.5 | 16.2 | 15.19 | 14.08 | 12.9 | 11.96
413.1 K | 18.2 | 17.2 | 15.87 | 15.16 | 14.1 | 13.27 | 12.36 | 11.39 | 10.58
418.1 K | 15.69 | 14.92 | 13.82 | 13.25 | 12.37 | 11.7 | 10.93 | 10.12 | 9.43
423.1 K | 13.69 | 13.06 | 12.15 | 11.69 | 10.96 | 10.4 | 9.75 | 9.08 | 8.49
428.1 K | 12.07 | 11.55 | 10.79 | 10.4 | 9.79 | 9.32 | 8.77 | 8.21 | 7.68
433.1 K | 10.76 | 10.32 | 9.68 | 9.35 | 8.83 | 8.44 | 7.96 | 7.48 | 7.02
438.1 K | 9.69 | 9.31 | 8.77 | 8.48 | 8.04 | 7.7 | 7.29 | 6.88 | 6.46
443.1 K | 8.82 | 8.5 | 8.03 | 7.78 | 7.39 | 7.11 | 6.74 | 6.38 | 6

CC[n+]1ccn(C)c1.F[B-](F)(F)F + CC(=O)c1ccccc1
Settings | viscosity [mPa·s]
293.15 K, 100 kPa, x2 = 0 | 42.7

CO + CS(=O)(=O)[O-].C[N+](C)(CCO)CCO
101 kPa, x2 = 0
Settings | viscosity [mPa·s]
298.15 K | 0.576
303.15 K | 0.539
308.15 K | 0.506
313.15 K | 0.477
318.15 K | 0.453
323.15 K | 0.43

CCCC[n+]1ccn(C)c1.[I-] + CCO
298.15 K, 100 kPa
Settings | electrical conductivity [S/m]
x1 = 0.009029 | 0.254
x1 = 0.1006 | 1.47
x1 = 0.2076 | 1.74

CCCC[n+]1cccc(C)c1.N#C[N-]C#N + O
298.15 K, 101 kPa
Settings | electrical conductivity [S/m]
x1 = 0.0001676 | 0.072
x1 = 0.0003333 | 0.132
x1 = 0.0004971 | 0.18
x1 = 0.0007203 | 0.265
x1 = 0.0009901 | 0.347
x1 = 0.001245 | 0.42
x1 = 0.001513 | 0.502
x1 = 0.001757 | 0.558
x1 = 0.002014 | 0.629
x1 = 0.002115 | 0.655
x1 = 0.002344 | 0.698
x1 = 0.002438 | 0.725
x1 = 0.002706 | 0.785
x1 = 0.002941 | 0.824
x1 = 0.00295 | 0.83
x1 = 0.00329 | 0.889
x1 = 0.003543 | 0.944

CC[n+]1ccn(C)c1.COP(=O)([O-])OC + O
101 kPa
Settings | viscosity [mPa·s]
293.15 K, x2 = 0.198 | 292
298.15 K, x2 = 0.198 | 212
303.15 K, x2 = 0.198 | 157.4
318.15 K, x2 = 0.198 | 73.7
318.15 K, x2 = 0.399 | 52.73
318.15 K, x2 = 0.799 | 11.57
328.15 K, x2 = 0.399 | 35.56
333.15 K, x2 = 0.198 | 40.33
